Assay results: US20260199323A1, “LIGAND COMPOUNDS FOR E3 UBIQUITIN LIGASE, PROTEIN DEGRADERS DEVELOPED ON BASIS OF LIGAND COMPOUNDS, AND USES THEREOF” (GLUETACS THERAPEUTICS (SHANGHAI) CO., LTD., priority 2021, published 2026)
Where two headings read alike, the source gives them in different places. Blank lines part the entries; values can stand above or below the compound they belong to.

Columns and labels:
MDA-MB-231 = assay: CCK-8 tumor cell proliferation, MDA-MB-231; type: cell-based, Human; parameters: IC50 for inhibiting the proliferation of tumor cells, MDA-MB-231: scale not given here; details: Table 7, designed based on BTK inhibitors, 96 h
Summary of the method: (§1)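 Viability determined colorimetrically with CCK-8 following compound treatment. Dosing began 24 h post-plating using ten 5-fold dilutions capped at 10 μM; growth-inhibition curves yielded IC50.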

MM.1S = assay: CCK-8 tumor cell proliferation, MM.1S; type: cell-based; details: for IC50: Homo sapiens, MM1.S
Summary of the method: as §1

22RV1 = assay: CCK-8 tumor cell proliferation, 22RV1; parameters: species or system Human; details: Table 7, designed based on BTK inhibitors, 96 h
Experimental: (§2) The tumor cells used herein were cultured in a cell culture medium listed in table 4 at 37° C. in an incubator with 5% CO2. Prior to experimentation, all cells used were correctly identified by STR profiling, and tested negative for mycoplasma through routine screenings.
(§3) IC50 values of the compounds of the present disclosure (including the compounds in Tables 1 and 3, and compounds of examples) were measured using the Meilun Cell Counting Kit-8 kit from Dalian Meilun Biotech Co., Ltd. Assay details are as follows: tumor cells were seeded in a 96-well plate at a density listed in Table 5. After 24 h, 100 μL of the inoculated cells were treated with 0.5 μL of the compounds of the present disclosure (including the compounds in Tables 1 and 3, and compounds of examples) at 10 different successively decreasing concentrations (starting at the highest concentration of 10 μM; 5-fold serial dilutions). After the cells were treated with the compounds of the present disclosure for a period of time, the cell viability detection reagent was added to the culture medium for cell viability assessment according to the instructions provided with the CCK-8 kit. […] The growth inhibition of the compounds of the present disclosure on cells was plotted by Prism Graphpad software, and the IC50 values of the compounds of the present disclosure were calculated therefrom.

Mino = assay: CCK-8 tumor cell proliferation, Mino; type: cell-based, Human; details: Table 7, designed based on BTK inhibitors; 72 h
Summary of the method: as §1

MV-4-11 = assay: CCK-8 tumor cell proliferation, MV-4-11; type: cell-based, Human; details: Table 7, designed based on BTK inhibitors; 72 h
Summary of the method: as §1

NCI-H1975 = assay: CCK-8 tumor cell proliferation, NCI-H1975; type: cell-based, Human; details: Table 7, designed based on BTK inhibitors; 96 h
Experimental: as §2, §3

JEKO-1 = assay: CCK-8 tumor cell proliferation, JEKO-1; parameters: species or system Human; details: Table 7, designed based on BTK inhibitors; 96 h
Experimental: as §2, §3

Vcap = assay: CCK-8 tumor cell proliferation, Vcap; type: cell-based, Human; details: Homo sapiens, VCaP
Summary of the method: as §1

SW620 = assay: CCK-8 tumor cell proliferation, SW620; type: cell-based, Human; details: Homo sapiens, SW-620; Table 18, FAK inhibitor based; SW620; read-out: IC50 inhibiting proliferation of tumor cells, SW620
Summary of the method: as §1

CAL-62 = assay: CCK-8 tumor cell proliferation, CAL-62; type: cell-based, Human; details: Homo sapiens; Table 18, FAK inhibitor based; CAL-62; read-out: IC50 inhibiting proliferation of tumor cells, CAL-62
Summary of the method: as §1

MGC-803 = assay: CCK-8 tumor cell proliferation, MGC-803; details: Homo sapiens, Table 18, FAK inhibitor based, MGC803, read-out: IC50 inhibiting proliferation of tumor cells, MGC803
Experimental: as §2, §3

CCRF-CEM = assay: CCK-8 tumor cell proliferation, CCRF-CEM; type: cell-based, Human; details: Homo sapiens, CCRF-CEM
Summary of the method: as §1

Hep3B2.7-1 = assay: CCK-8 tumor cell proliferation, Hep3B2.7-1; type: cell-based, Human; details: Homo sapiens; Table 18, FAK inhibitor based; HEP3B2.7-1; read-out: IC50 inhibiting proliferation of tumor cells, HEP3B2.7-1
Summary of the method: as §1

THP-1 = assay: CCK-8 tumor cell proliferation, THP-1; type: cell-based, Human; details: Homo sapiens, THP-1; Table 7, designed based on BTK inhibitors; 72 h; read-out: IC50 for inhibiting the proliferation of tumor cells, THP-1
Experimental: as §2, §3

[1] = Table 7, designed based on BTK inhibitors, 72 h
[2] = Table 18, FAK inhibitor based, Vcap, read-out: IC50 inhibiting proliferation of tumor cells, Vcap
[3] = Table 18, FAK inhibitor based, read-out: IC50 inhibiting proliferation of tumor cells, CCRF-CEM
[4] = Table 18, FAK inhibitor based, MM.1S, read-out: IC50 inhibiting proliferation of tumor cells, MM.1S

- IC50 for inhibiting the proliferation of tumor cells, MDA-MB-231 (MDA-MB-231): A+
- IC50 for inhibiting the proliferation of tumor cells, MM.1S (MM.1S; [1]): A+
- IC50 for inhibiting the proliferation of tumor cells, 22RV1 (22RV1): A+
- IC50 for inhibiting the proliferation of tumor cells, Mino (Mino): A+
- IC50 for inhibiting the proliferation of tumor cells, MV-4-11 (MV-4-11): A+
Compound: Nc1ncnc2c1c(-c1ccc(Oc3ccccc3)cc1)nn2C1CCN(Cc2ccc3c(c2)CN(C2CCC(=O)NC2=O)C3=O)CC1F (stereo not drawn) [GT-02652, 3-(5-((4-(4-amino-3-(4-phenoxyphenyl)-1H-pyrazolo[3,4-d]pyrimidin-1-yl)-3-fluoropiperidin-1-yl)methyl)-1-oxoisoindolin-2-yl)piperidine-2,6-dione]

- IC50 for inhibiting the proliferation of tumor cells, MDA-MB-231 (MDA-MB-231): A+
- IC50 for inhibiting the proliferation of tumor cells, MM.1S (MM.1S; [1]): A+
- IC50 for inhibiting the proliferation of tumor cells, 22RV1 (22RV1): A+
- IC50 for inhibiting the proliferation of tumor cells, NCI-H1975 (NCI-H1975): A+
- IC50 for inhibiting the proliferation of tumor cells, JEKO-1 (JEKO-1): A+
- IC50 for inhibiting the proliferation of tumor cells, Mino (Mino): A+
Compound: Nc1ncnc2c1c(-c1ccc(Oc3ccccc3)cc1)nn2[C@H]1CCN(Cc2ccc3c(c2)CN(C2CCC(=O)NC2=O)C3=O)C[C@@H]1F (stereo partly drawn) [GT-03264, 3-(5-(((3S,4S)-4-(4-amino-3-(4-phenoxyphenyl)-1H-pyrazolo[3,4-d]pyrimidin-1-yl)-3-fluoropiperidin-1-yl)methyl)-1-oxoisoindolin-2-yl)piperidine-2,6-dione]

- IC50 for inhibiting the proliferation of tumor cells, MDA-MB-231 (MDA-MB-231): A+
- IC50 for inhibiting the proliferation of tumor cells, MM.1S (MM.1S; [1]): A+
- IC50 for inhibiting the proliferation of tumor cells, 22RV1 (22RV1): A+
- IC50 for inhibiting the proliferation of tumor cells, JEKO-1 (JEKO-1): A+
- IC50 for inhibiting the proliferation of tumor cells, Mino (Mino): A+
Compound: Nc1ncnc2c1c(-c1ccc(Oc3ccccc3)cc1)nn2[C@@H]1CCN(Cc2ccc3c(c2)CN(C2CCC(=O)NC2=O)C3=O)C[C@H]1F (stereo partly drawn) [GT-03287, 3-(5-(((3R,4R)-4-(4-amino-3-(4-phenoxyphenyl)-1H-pyrazolo[3,4-d]pyrimidin-1-yl)-3-fluoropiperidin-1-yl)methyl)-1-oxoisoindolin-2-yl)piperidine-2,6-dione]

- IC50 (Vcap; [2]): < 0.05 µM
- IC50 (SW620): < 0.05 µM
- IC50 (CAL-62): < 0.05 µM
- IC50 (MGC-803): < 0.05 µM
Compound: CNC(=O)c1ccccc1Nc1cc(Nc2cc(C)c(N3CCN(Cc4cc5c(cc4F)C(=O)N(C4CCC(=O)NC4=O)C5)CC3)cc2OC(C)C)ncc1C(F)(F)F (stereo not drawn) [GT-03942, 2-((2-((4-(4-((2-(2,6-dioxopiperidin-3-yl)-6-fluoro-1-oxoisoindolin-5-yl)methyl)piperazin-1-yl)-2-isopropoxy-5-methylphenyl)amino)-5-(trifluoromethyl)pyridin-4-yl)amino)-N-methylbenzamide]

- IC50 (CCRF-CEM; [3]): < 0.05 µM
- IC50 (Hep3B2.7-1): < 0.05 µM
- IC50 (MM.1S; [4]): < 0.05 µM
- IC50 (Vcap; [2]): < 0.05 µM
- IC50 (SW620): < 0.05 µM
- IC50 (CAL-62): < 0.05 µM
- IC50 (MGC-803): 0.1 to 0.5 µM
Compound: CNC(=O)c1ccccc1Nc1cc(Nc2cc(C)c(C3CCN(Cc4ccc5c(c4F)CN(C4CCC(=O)NC4=O)C5=O)CC3)cc2OC(C)C)ncc1C(F)(F)F (stereo not drawn) [GT-04079, 2-((2-((4-(1-((2-(2,6-dioxopiperidin-3-yl)-4-fluoro-1-oxoisoindolin-5-yl)methyl)piperidin-4-yl)-2-isopropoxy-5-methylphenyl)amino)-5-(trifluoromethyl)pyridin-4-yl)amino)-N-methylbenzamide]

- IC50 (CCRF-CEM; [3]): < 0.05 µM
- IC50 (Hep3B2.7-1): < 0.05 µM
- IC50 (MM.1S; [4]): < 0.05 µM
- IC50 (Vcap; [2]): < 0.05 µM
- IC50 (SW620): < 0.05 µM
- IC50 (CAL-62): < 0.05 µM
- IC50 (MGC-803): 0.05 to 0.1 µM
Compound: CNC(=O)c1ccccc1Nc1cc(Nc2cc(C)c(C3CCN(Cc4cc5c(cc4F)C(=O)N(C4CCC(=O)NC4=O)C5)CC3)cc2OC(C)C)ncc1C(F)(F)F (stereo not drawn) [GT-04080, 2-((2-((4-(1-((2-(2,6-dioxopiperidin-3-yl)-6-fluoro-1-oxoisoindolin-5-yl)methyl)piperidin-4-yl)-2-isopropoxy-5-methylphenyl)amino)-5-(trifluoromethyl)pyridin-4-yl)amino)-N-methylbenzamide]

- IC50 (CAL-62): 0.05 to 0.1 µM
- IC50 (MGC-803): < 0.05 µM
Compound: CNC(=O)c1ccccc1Nc1cc(Nc2cc(C)c(N3CCC(N(C)Cc4ccc5c(c4)CN(C4CCC(=O)NC4=O)C5=O)CC3)cc2OC(C)C)ncc1C(F)(F)F (stereo not drawn) [GT-04090, 2-((2-((4-(4-(((2-(2,6-dioxopiperidin-3-yl)-1-oxoisoindolin-5-yl)methyl)(methyl)amino)piperidin-1-yl)-2-isopropoxy-5-methylphenyl)amino)-5-(trifluoromethyl)pyridin-4-yl)amino)-N-methylbenzamide]

- IC50 (CAL-62): < 0.05 µM
- IC50 (MGC-803): 0.05 to 0.1 µM
Compound: CNC(=O)c1ccccc1Nc1cc(Nc2cc(C)c(N3CCC(N(C)Cc4ccc5c(c4F)CN(C4CCC(=O)NC4=O)C5=O)CC3)cc2OC(C)C)ncc1C(F)(F)F (stereo not drawn) [GT-04091, 2-((2-((4-(4-(((2-(2,6-dioxopiperidin-3-yl)-4-fluoro-1-oxoisoindolin-5-yl)methyl)(methyl)amino)piperidin-1-yl)-2-isopropoxy-5-methylphenyl)amino)-5-(trifluoromethyl)pyridin-4-yl)amino)-N-methylbenzamide]

- IC50 (CAL-62): 0.1 to 0.5 µM
- IC50 (MGC-803): < 0.05 µM
Compound: CNC(=O)c1ccccc1Nc1cc(Nc2cc(C)c(N3CCC(N(C)Cc4cc5c(cc4F)C(=O)N(C4CCC(=O)NC4=O)C5)CC3)cc2OC(C)C)ncc1C(F)(F)F (stereo not drawn) [GT-04092, 2-((2-((4-(4-(((2-(2,6-dioxopiperidin-3-yl)-6-fluoro-1-oxoisoindolin-5-yl)methyl)(methyl)amino)piperidin-1-yl)-2-isopropoxy-5-methylphenyl)amino)-5-(trifluoromethyl)pyridin-4-yl)amino)-N-methylbenzamide]

- IC50 (CAL-62): 0.05 to 0.1 µM
- IC50 (MGC-803): < 0.05 µM
Compound: CNC(=O)c1ccccc1Nc1cc(Nc2cc(C)c(N3CCC(N(C)Cc4cc(F)c5c(c4)CN(C4CCC(=O)NC4=O)C5=O)CC3)cc2OC(C)C)ncc1C(F)(F)F (stereo not drawn) [GT-04093, 2-((2-((4-(4-(((2-(2,6-dioxopiperidin-3-yl)-7-fluoro-1-oxoisoindolin-5-yl)methyl)(methyl)amino)piperidin-1-yl)-2-isopropoxy-5-methylphenyl)amino)-5-(trifluoromethyl)pyridin-4-yl)amino)-N-methylbenzamide]

- IC50 (CCRF-CEM; Table 7, designed based on BTK inhibitors, 96 h, read-out: IC50 for inhibiting the proliferation of tumor cells, CCRF-CEM): > 10 µM
- IC50 (MDA-MB-231; Homo sapiens, MDA-MB-231, read-out: IC50 for inhibiting the proliferation of tumor cells, MDA-MB-231): > 10 µM
- IC50 (MM.1S; Table 7, designed based on BTK inhibitors, 72 h, read-out: IC50 for inhibiting the proliferation of tumor cells, MM.1S): > 10 µM
- IC50 (22RV1; Homo sapiens, 22Rv1, read-out: IC50 for inhibiting the proliferation of tumor cells, 22RV1): > 10 µM
- IC50 (THP-1): > 10 µM
- IC50 (Vcap; 96 h, Table 7, designed based on BTK inhibitors, 96 h, read-out: IC50 for inhibiting the proliferation of tumor cells, Vcap): > 10 µM
Compound: C=CC(=O)N1CCC[C@@H](n2nc(-c3ccc(Oc4ccccc4)cc3)c3c(N)ncnc32)C1 [ibrutinib, Ibrutinib, reference compound]
